This is an account of results in the Kinase Knowledgebase extract (Sharma et al. 2016).

Broadly, the IC50 is the concentration at which inhibition is half-maximal. Low values mean higher potency, high ones lower potency.

Chain of PIK3CA (human) (P42336 whole entry, looked up): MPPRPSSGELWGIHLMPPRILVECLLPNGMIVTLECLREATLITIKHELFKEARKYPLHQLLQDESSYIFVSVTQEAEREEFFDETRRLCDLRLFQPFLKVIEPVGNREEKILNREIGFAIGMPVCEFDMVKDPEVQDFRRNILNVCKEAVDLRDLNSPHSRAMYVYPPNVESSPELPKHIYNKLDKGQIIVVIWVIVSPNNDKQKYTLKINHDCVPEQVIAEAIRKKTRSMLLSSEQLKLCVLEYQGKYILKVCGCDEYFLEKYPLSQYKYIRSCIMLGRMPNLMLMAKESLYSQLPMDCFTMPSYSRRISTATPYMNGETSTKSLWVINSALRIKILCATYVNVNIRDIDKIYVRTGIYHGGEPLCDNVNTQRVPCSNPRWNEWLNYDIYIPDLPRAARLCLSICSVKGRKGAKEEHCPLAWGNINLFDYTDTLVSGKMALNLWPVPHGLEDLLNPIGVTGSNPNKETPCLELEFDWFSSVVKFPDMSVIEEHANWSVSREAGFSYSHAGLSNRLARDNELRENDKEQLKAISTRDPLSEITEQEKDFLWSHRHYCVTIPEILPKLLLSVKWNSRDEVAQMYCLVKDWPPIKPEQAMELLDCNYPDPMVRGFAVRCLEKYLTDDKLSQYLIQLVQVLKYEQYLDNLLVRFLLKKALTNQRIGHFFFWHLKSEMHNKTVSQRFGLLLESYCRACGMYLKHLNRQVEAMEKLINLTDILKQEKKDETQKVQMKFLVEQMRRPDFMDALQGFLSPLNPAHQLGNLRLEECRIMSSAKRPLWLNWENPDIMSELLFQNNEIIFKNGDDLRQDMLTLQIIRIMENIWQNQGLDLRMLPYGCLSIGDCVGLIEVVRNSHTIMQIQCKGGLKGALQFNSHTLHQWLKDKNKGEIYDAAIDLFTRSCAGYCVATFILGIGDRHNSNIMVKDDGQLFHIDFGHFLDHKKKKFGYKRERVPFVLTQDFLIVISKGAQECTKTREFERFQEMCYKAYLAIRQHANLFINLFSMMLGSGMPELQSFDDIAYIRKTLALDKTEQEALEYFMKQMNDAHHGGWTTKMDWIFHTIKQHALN

This test has as its target PIK3CA (human) (UniProt P42336). Put plainly: Inhibition of PIK3CA Kinase Activity.
On to `Cc1nc(N)nc(-n2c(Nc3cccc4[nH]ncc34)nc3ccccc32)n1`, for which the IC50 was 14.6 nM.
The molecule `Cc1nc(N)nc(-n2c(Nc3ccc(NC(=O)c4ccc(OC(F)(F)F)cc4)cc3)nc3ccccc32)n1` gave an IC50 of 2550 nM.
Next, `CCNC(=S)Nc1ccc(Nc2nc3ccccc3n2-c2nc(C)nc(N)n2)cc1`: 470 nM; `Cc1nc(NC2CC2)nc(-n2c(Nc3ccn[nH]3)nc3ccccc32)n1`: 4850 nM; `Cc1nc(NCCO)nc(-n2c(Nc3cc[nH]n3)nc3ccccc32)n1`: 7260 nM.
Under `Cc1nc(N)nc(-n2c(Nc3ccc(NS(=O)(=O)c4ccc(F)cc4)cc3)nc3ccccc32)n1` stands 1340 nM.
Under `COc1ccc(-c2ccc3c(c2)nc(Nc2ccn[nH]2)n3-c2nc(C)nc(N)n2)cc1CO.COc1ccc(-c2ccc3nc(Nc4ccn[nH]4)n(-c4nc(C)nc(N)n4)c3c2)cc1CO` stands 94.3 nM; under `COCCNc1nc(C)nc(-n2c(Nc3cc[nH]n3)nc3ccccc32)n1`, 4550 nM.
`Cc1nc(NC2CCOCC2)nc(-n2c(Nc3cc[nH]n3)nc3ccccc32)n1` displayed an IC50 of 17200 nM.
Next, `Cc1nc(N)nc(-n2c(Nc3ccc(NC(=O)C4CCCC4)cc3)nc3ccccc32)n1`: 1370 nM.
Next, `CNc1nc(C)nc(-n2c(Nc3ccc(NC(C)=O)cc3)nc3ccccc32)n1`: 53.1 nM.
Under `Cc1nc(NCCN2CCNCC2)nc(-n2c(Nc3cc[nH]n3)nc3ccccc32)n1` stands 31800 nM; under `Cc1nc(N)nc(-n2c(Nc3n[nH]c4cccc(F)c34)nc3ccccc32)n1`, 2740 nM.
`CNc1nc(C)nc(-n2c(Nc3cc[nH]n3)nc3cc(C4=CCNCC4)ccc32)n1.CNc1nc(C)nc(-n2c(Nc3cc[nH]n3)nc3ccc(C4=CCNCC4)cc32)n1`: the concentration for half-maximal inhibition (IC50) was found to be 4240 nM.
Under `CNc1nc(C)nc(-n2c(Nc3cc[nH]n3)nc3ccc(-c4cncnc4)cc32)n1` stands 58.1 nM; under `Cc1nc(N)nc(-n2c(NC3CCOC3)nc3ccccc32)n1` (stereo unspecified), 3830 nM.
